Laboratory results reported in patent US20250171423A1, “PHARMACEUTICAL COMPOUNDS FOR THE TREATMENT OF COMPLEMENT MEDIATED DISORDERS” (Achillion Pharmaceuticals, Inc., priority 2020, published 2025).

Target: T1, Human complement C1s enzyme (Homo sapiens, UniProt P09871)
T1 construct: purified from human serum, Complement Technology, Inc; purchased Complement Technology, Inc; host or cells: human serum
T1 sequence (P09871 438-688 limits assumed): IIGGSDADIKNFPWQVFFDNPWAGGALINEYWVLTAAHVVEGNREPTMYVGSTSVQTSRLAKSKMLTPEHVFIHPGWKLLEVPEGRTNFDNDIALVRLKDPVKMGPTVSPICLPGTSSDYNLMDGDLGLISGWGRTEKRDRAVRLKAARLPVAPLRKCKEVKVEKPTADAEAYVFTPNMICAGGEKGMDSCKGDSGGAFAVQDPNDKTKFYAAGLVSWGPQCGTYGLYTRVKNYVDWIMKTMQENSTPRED
T1 sequence (P09871 16-437 partner limits assumed): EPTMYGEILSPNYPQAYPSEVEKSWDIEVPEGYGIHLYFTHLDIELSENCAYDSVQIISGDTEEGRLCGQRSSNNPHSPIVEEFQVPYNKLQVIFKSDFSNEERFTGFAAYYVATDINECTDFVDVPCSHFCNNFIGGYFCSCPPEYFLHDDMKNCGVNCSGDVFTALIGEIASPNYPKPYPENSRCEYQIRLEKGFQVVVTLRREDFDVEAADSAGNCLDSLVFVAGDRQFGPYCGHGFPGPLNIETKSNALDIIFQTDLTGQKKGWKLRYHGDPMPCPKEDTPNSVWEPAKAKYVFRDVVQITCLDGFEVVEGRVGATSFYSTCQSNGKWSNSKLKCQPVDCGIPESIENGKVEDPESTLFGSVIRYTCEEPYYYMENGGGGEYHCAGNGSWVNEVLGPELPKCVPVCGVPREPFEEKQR
Test: Human C1s Enzyme Assay
Type: biochemical
Conditions: human C1s 1.16 nM, 5 min preincubation, substrate Z-L-Lys-SBzl 100 μM, A405; read-out: C1s Protease Activity
Experimental: The assay of Example 3 was used to determine the IC50's of the compounds. Other standard complement assays are also available.
Example 3. Human C1s Enzyme Assay
Human complement C1s enzyme (purified from human serum, Complement Technology, Inc.) at 1.16 nM final concentration was incubated with test compound at various concentrations for 5 min at room temperature in 50 mM Tris, 1 M NaCl, pH 7.5. A synthetic substrate Z-L-Lys-SBzl and DTNB (Ellman's reagent) were added to final concentrations of 100 μM each. Absorbance at 405 nm (A405) was recorded at 30 second intervals for 30 min using a microplate spectrophotometer. IC50 values were calculated by nonlinear regression of complement C1s reaction rates as a function of test compound concentration.

Going from `N=C(N)c1csc([C@@H](NC(=O)[C@@H]2CC3(CN2C(=O)CNC(=O)CCCOc2ccccc2)OCCO3)c2ccccc2)c1` [Compound 217, (S)-N-((S)-(4-carbamimidoylthiophen-2-yl)(phenyl)methyl)-7-((4-phenoxybutanoyl)glycyl)-1,4-dioxa-7-azaspiro[4.4]nonane-8-carboxamide] to `CC(CCC(=O)NCC(=O)N1CC2(C[C@H]1C(=O)NCc1cc(C(=N)N)cs1)OCCO2)Oc1ccccc1` (stereo partly drawn) [Compound 97, (8S)-N-((4-carbamimidoylthiophen-2-yl)methyl)-7-((4-phenoxypentanoyl)glycyl)-1,4-dioxa-7-azaspiro[4.4]nonane-8-carboxamide], the IC50 falls from greater than 1000 nM to less than 100 nM.

First: N=C(N)c1csc(CNC(=O)[C@@H]2C[C@]3(CO)C[C@@H]3N2C(=O)CNC(=O)CCCOc2ccccc2)c1 [Compound 84, (1S,3S,5R)-N-((4-carbamimidoylthiophen-2-yl)methyl)-5-(hydroxymethyl)-2-((4-phenoxybutanoyl)glycyl)-2-azabicyclo[3.1.0]hexane-3-carboxamide]
Second: C[C@@]12C[C@@H]1N(C(=O)CNC(=O)CCCCc1ccccc1)[C@H](C(=O)NCc1cc(C(=N)N)cs1)C2 [Compound 81, (1S,3S,5S)-N-((4-carbamimidoylthiophen-2-yl)methyl)-5-methyl-2-((5-phenyl-pentanoyl)glycyl)-2-azabicyclo[3.1.0]hexane-3-carboxamide]
The IC50 of the first is higher: 100 to 1000 nM for the first, less than 100 nM for the second. The second is the more potent here.

`Cc1cccc(O[C@@H]2C[C@@H](C(=O)N[C@H](C)c3cc(C(=N)N)cs3)N(C(=O)CNC(=O)CCCOc3ccccc3)C2)c1` [Compound 118, (2S,4R)-N-((R)-1-(4-carbamimidoylthiophen-2-yl)ethyl)-1-((4-phenoxybutanoyl)-glycyl)-4-(m-tolyloxy)pyrrolidine-2-carboxamide] and `Cc1ccc(O[C@@H]2C[C@@H](C(=O)N[C@H](C)c3cc(C(=N)N)cs3)N(C(=O)CNC(=O)CCCOc3ccccc3)C2)cc1` [Compound 131, (2S,4R)-N-((R)-1-(4-carbamimidoylthiophen-2-yl)ethyl)-1-((4-phenoxybutanoyl)glycyl)-4-(p-tolyloxy)pyrrolidine-2-carboxamide] cannot be ordered by IC50: less than 100 nM for the first, less than 100 nM for the second.

`C[C@@H](NC(=O)[C@@H]1C[C@@H](S(C)(=O)=O)CN1C(=O)CNC(=O)CCCOc1ccc(F)cc1)c1cc(C(=N)N)cs1` [Compound 107, (2S,4R)-N-((R)-1-(4-carbamimidoylthiophen-2-yl)ethyl)-1-((4-(4-fluorophenoxy)-butanoyl)glycyl)-4-(methylsulfonyl)pyrrolidine-2-carboxamide] and `CC(C)O[C@@H]1C[C@@H](C(=O)N[C@H](C)c2cc(C(=N)N)cs2)N(C(=O)CNC(=O)CCCOc2ccccc2)C1` [Compound 166, (2S,4R)-N-((R)-1-(4-carbamimidoylthiophen-2-yl)ethyl)-4-isopropoxy-1-((4-phenoxybutanoyl)glycyl)pyrrolidine-2-carboxamide] cannot be ordered by IC50: less than 100 nM for the first, less than 100 nM for the second.

`CC(=O)NCCOC[C@@]12C[C@@H]1N(C(=O)CNC(=O)c1ccc(Oc3ccccc3)cc1)[C@H](C(=O)N[C@H](C)c1cc(C(=N)N)cs1)C2` [Compound 141, (1S,3S,5R)-5-((2-acetamidoethoxy)methyl)-N-((R)-1-(4-carbamimidoylthiophen-2-yl)ethyl)-2-((4-phenoxybenzoyl)glycyl)-2-azabicyclo[3.1.0]hexane-3-carboxamide] and `C[C@@H](NC(=O)[C@@H]1C[C@]2(C)C[C@@H]2N1C(=O)CNC(=O)c1ccc(Oc2ccccc2)cc1)c1cc(-c2ncc[nH]2)cs1` [Compound 240, (1S,3S,5S)-N-((R)-1-(4-(1H-imidazol-2-yl)thiophen-2-yl)ethyl)-5-methyl-2-((4-phenoxybenzoyl)glycyl)-2-azabicyclo[3.1.0]hexane-3-carboxamide] cannot be ordered by IC50: less than 100 nM for the first, less than 100 nM for the second.

First: C[C@@]12C[C@@H]1N(C(=O)CNC(=O)c1ccc(Oc3ccccc3)cc1)[C@H](C(=O)NCc1cnc(N)s1)C2 [Compound 102, (1S,3S,5S)-N-[(2-amino-1,3-thiazol-5-yl)methyl]-5-methyl-2-{2-[(4-phenoxyphenyl)-formamido]acetyl}-2-azabicyclo[3.1.0]hexane-3-carboxamide]
Second: C[C@@]12C[C@@H]1N(C(=O)CNC(=O)c1ccc(Oc3ccccc3)cc1)[C@H](C(=O)NCc1cc(-c3ncc[nH]3)cs1)C2 [Compound 38, (1S,3S,5S)-N-((4-(1H-imidazol-2-yl)thiophen-2-yl)methyl)-5-methyl-2-((4-phenoxybenzoyl)glycyl)-2-azabicyclo[3.1.0]hexane-3-carboxamide]
The IC50 of the first is higher: 100 to 1000 nM for the first, less than 100 nM for the second.

`C[C@@H](NC(=O)[C@@H]1CC2(CN1C(=O)CNC(=O)c1ccc(C(=O)c3ccccc3)cc1)OCCO2)c1cc(C(=N)N)cs1` [Compound 219, (S)-7-((4-benzoylbenzoyl)glycyl)-N-((R)-1-(4-carbamimidoylthiophen-2-yl)ethyl)-1,4-dioxa-7-azaspiro[4.4]nonane-8-carboxamide] and `C[C@@H](NC(=O)[C@@H]1CC2(CCCC2)CN1C(=O)CNC(=O)CCCOc1ccccc1)c1cc(C(=N)N)cs1` [Compound 114, (S)-N-((R)-1-(4-carbamimidoylthiophen-2-yl)ethyl)-2-((4-phenoxybutanoyl)glycyl)-2-azaspiro[4.4]nonane-3-carboxamide] cannot be ordered by IC50: less than 100 nM for the first, less than 100 nM for the second.

Going from `C[C@@]12C[C@@H]1N(C(=O)CNC(=O)c1ccc(Oc3cccnc3)cn1)[C@H](C(=O)NCc1cc(C(=N)N)cs1)C2` [Compound 162, (1S,3S,5S)-N-((4-carbamimidoylthiophen-2-yl)methyl)-5-methyl-2-((5-(pyridin-3-yloxy)picolinoyl)glycyl)-2-azabicyclo[3.1.0]hexane-3-carboxamide] to `C[C@@]12C[C@@H]1N(C(=O)CNC(=O)c1ccc(Oc3ccccc3)cc1)[C@H](C(=O)NCc1cc(C(=N)N)c(C(F)(F)F)s1)C2` [Compound 248, (1S,3S,5S)-N-((4-carbamimidoyl-5-(trifluoromethyl)thiophen-2-yl)methyl)-5-methyl-2-((4-phenoxybenzoyl)glycyl)-2-azabicyclo[3.1.0]hexane-3-carboxamide], the IC50 rises from less than 100 nM to greater than 1000 nM.

First: N=C(N)c1csc(CNC(=O)[C@@H]2C[C@@H](C3CCCC3)CN2C(=O)CNC(=O)c2ccc(Oc3ccccc3)cc2)c1 [Compound 54, (2S,4S)-N-((4-carbamimidoylthiophen-2-yl)methyl)-4-cyclopentyl-1-((4-phenoxy-benzoyl)glycyl)pyrrolidine-2-carboxamide]
Second: CO[C@H]1[C@@H](C(=O)NCc2cc(C(=N)N)cs2)N(C(=O)CNC(=O)CCCOc2ccccc2)C[C@@H]1F [Compound 113, (2S,3S,4S)-N-((4-carbamimidoylthiophen-2-yl)methyl)-4-fluoro-3-methoxy-1-((4-phenoxybutanoyl)glycyl)pyrrolidine-2-carboxamide]
The IC50 of the first is lower: less than 100 nM for the first, 100 to 1000 nM for the second.

Going from `C[C@@H](NC(=O)[C@@H]1C[C@]2(C)C[C@@H]2N1C(=O)CNC(=O)[C@H](CCOc1ccccc1)NC(=O)CCC(=O)O)c1cc(C(=N)N)cs1` [Compound 184, 4-(((S)-1-((2-((1S,3S,5S)-3-(((R)-1-(4-carbamimidoylthiophen-2-yl)ethyl)carbamoyl)-5-methyl-2-azabicyclo[3.1.0]hexan-2-yl)-2-oxoethyl)amino)-1-oxo-4-phenoxybutan-2-yl)amino)-4-oxobutanoic acid] to `C[C@H](NC(=O)[C@@H]1C[C@]2(C)C[C@@H]2N1C(=O)CNC(=O)c1ccc(Oc2ccccc2)cc1)c1cc(-c2ncc[nH]2)cs1` [Compound 254, (1S,3S,5S)-N-((S)-1-(4-(1H-imidazol-2-yl)thiophen-2-yl)ethyl)-5-methyl-2-((4-phenoxybenzoyl)glycyl)-2-azabicyclo[3.1.0]hexane-3-carboxamide], the IC50 rises from less than 100 nM to greater than 1000 nM. The first is the more potent here.

Going from `C[C@@H](NC(=O)[C@@H]1C[C@@]23COCCCCCCCCCCCCCC(=O)N[C@@H](CCOc4ccccc4)C(=O)NCC(=O)N1[C@H]2C3)c1cc(C(=N)N)cs1` [Compound 255, (1R,19S,25S,28S)-N-((R)-1-(4-carbamimidoylthiophen-2-yl)ethyl)-17,20,23-trioxo-19-(2-phenoxyethyl)-3-oxa-18,21,24-triazatricyclo[22.2.2.0^125]octacosane-28-carboxamide] to `COc1ccc(CNC(=O)[C@@H]2C[C@]3(C)C[C@@H]3N2C(=O)CNC(=O)c2ccc(Oc3ccccc3)cc2)cc1` [Compound 43, (1S,3S,5S)-N-(4-methoxybenzyl)-5-methyl-2-((4-phenoxy-benzoyl)-glycyl)-2-azabicyclo[3.1.0]hexane-3-carboxamide], the IC50 rises from less than 100 nM to greater than 1000 nM. The first is the more potent here.
